Test results published in patent US20090143335A1, “MODIFIED ABSORPTION FORMULATION OF GABOXADOL” (H. LUNDBECK A/S, priority 2007, published 2009).

Legend:
[1] = Pharmacokinetics of gaboxadol in rats after IV dosing, with or without 5-HTP pre-incubation; format: in vivo, Sprague-Dawley rats; settings: rat; for Ke ± S.E.M.: IV gaboxadol 2.5 mg/kg
Method: (§1) The pharmacokinetics (PK) was evaluated in WinNonlin. Plasma concentrations curves of the animals dosed intravenously were fitted to a 2-compartment model whereas the data from animals dosed orally were analysed in a non-compartment model. Statistical analysis was done in Sigma Stat.
(§2) Gaboxadol was extracted from plasma and HBSS^+ samples by liquid extraction. 100 μl HBSS^+ (80 μl purified water were added to the 20 μl samples) or 100 μl plasma samples were mixed with 25 μl intern standard (d4-gaboxadol) and 25 μl purified water. Protein precipitation was carried out by addition of 400 μl cold acetonitrile. After centrifugation at 10,000 g in 15 minutes, 425 μl supernatant was transferred to glass tubes and evaporated to dryness under nitrogen at 45° C. The samples were re-solved in 80 μl methanol/acetonitrile (30:70), whirl mixed for 10 minutes and centrifuged in 3 minutes at 3000 rpm, before transferal to medium well plates and placed at 10° C. in the autosampler. Gaboxadol concentration in the extracted samples was subsequently quantified by hydrophilic interaction chromatography (HILIC-chromatography) followed by MS/MS detection. The LC system comprised of an Agilent 1100 series pump and degasser, a CTC Analytics interface transferred data to the computer and a Peltier Thermostat and HTC Pal autosampler handled the samples. An Asahipak amino column, (NH2P-50, 150×2 mm) from Phenomenex was used for the chromatographic separation with a mobile phase of 20.0 mM ammoniumacetat pH=4:acetonitrile (30:70) and a flow rate of 0.2 ml/min. 20 μL samples were injected onto the column, which was kept at room temperature. The total runtime was 10 minutes with the first 5 minutes of elution let to waste. The elution time of gaboxadol on the column was approximately 8 minutes. The MS/MS system used consisted of a Sciex API 4000 MS/MS detector with a Turbo Ion Spray and Turbo V source (Applied Biosystems). The detection was performed in negative ionization mode where gaboxadol (precursor 139.1 Da, product 110.1 Da) and d4-gaboxadol (precursor 143.0, product 112.2 Da) were measured by multiple-reaction-monitoring (MRM). The signals were linear between 0.5 and 2500.0 ng/ml and the limit of quantification by this procedure was 0.5 ng/ml. The software was from Analyst™ (Applied Biosystem, version 4.0).
(§3) Male Sprague-Dawley rats (Charles River Laboratories, Wilmington, Mass., USA) of 220-240 gram were housed and acclimated for 7 days before entering the experiments. The rats were maintained on standard food and water until 16-20 hours prior to dosing when food was retrieved to insure complete gastric emptying before experiments were conducted. Water was available to the animals until beginning of experiment and again 2 hours after. Each animal was randomly assigned to receive either one of the intravenous or oral formulations.
(§4) Blood samples of 0.2 ml were taken from the tail vein by individual vein puncture and collected into plasma collection tubes containing 20 IE heparin. Samples were collected at 5, 15, 30, 45, 60 minutes and after 2, 3, 4, 6, 8 hours after gaboxadol administration. The plasma was harvested immediately by centrifugation for 10 min. at 3.600 g and stored at −80° C. until further analysis.
0.25 mg gaboxadol as well as 0.0 or 10.0 mg 5-HTP was dissolved in purified water pr ml. at room temperature and placed on ice in ultrasound for 10 min. The solutions of gaboxadol used for intravenous injection was filtered through a 0.45 μm filter.
Animals were administered with 100.0 mg/kg 5-HTP or saline by oral gavage 30 min. prior to intravenous injection of 2.5 mg/kg gaboxadol into the tail vein […].

[2] = Pharmacokinetics of gaboxadol in rats after PO dosing, with or without 5-HTP pre-incubation; format: in vivo, Sprague-Dawley rats; settings: rat; for Cmax: Cmax ± S.E.M.; for Tmax: Tmax ± S.E.M.
Method: as §1, §2
0.05 or 0.5 mg gaboxadol as well as 0.0 or 20.0 mg 5-HTP was dissolved in purified water pr ml. at room temperature and placed on ice in ultrasound for 10 min. The formulations were adjusted to pH 4-5 and with NaOH/HCl and made isotonic by addition of mannitol. pH of all solutions was adjusted to pH above 4.0 and below 5.0, the osmolality was adjusted with mannitol to 280 mmol/kg.
as §3
6 parallel groups of rats (n=6) were given isotonic solutions of 0.5 or 5.0 mg/kg of gaboxadol together with saline or 200.0 mg/kg 5-HTP, by oral gavage (10.0 ml/kg). The suspensions of 5-HTP were given as a pre-incubation 30 min. prior to the gaboxadol solutions.
as §4

[3] = male, Sprague-Dawley, in vivo, iv, 2.5 mg/kg
[4] = male, Sprague-Dawley, in vivo, po
[5] = male, Sprague-Dawley, in vivo, po, 0.5 mg/kg
[6] = male, Sprague-Dawley, in vivo, po, 5 mg/kg

Oc1noc2c1CCNC2 [gaboxadol, 4,5,6,7-tetrahydroisoxazolo [5,4-c]pyridine-3-ol]
Cmax ± S.E.M. [1, 3]: 4109 ± 302.6 ng/mL | T1/2 [1, 3]: 44 min | Tmax [1, 3]: 5 min | Tmax ± S.E.M. [1, 3]: 5 ± 0.0 min | Cmax ([1]; male, Sprague-Dawley, in vivo, iv, 2.5 mg/kg, Cmax ± S.E.M.): 2850 ± 312 ng/mL | half-life ([1]; male, Sprague-Dawley, in vivo, iv, 2.5 mg/kg, T1/2): 26 min | AUC-dose-linearity: AUC of group G relative to group K ([1]; in vivo): five times | AUC of group K relative to group L ([1]; in vivo, iv, 2.5 mg/kg): ~3 times | Ke ± S.E.M. ([1]; treatment K, no 5-HTP): 0.0266 ± 0.0008 min⁻¹ | Ke ± S.E.M. ([1]; treatment L, 5-HTP 100 mg/kg by oral gavage 30 min prior): 0.0181 ± 0.0030 min⁻¹ | Tmax ± S.E.M. [2, 4]: 43 min | Cmax ± S.E.M. [2, 5]: 294 ± 39.4 ng/mL | Cmax [2, 5]: 273 ± 26.7 ng/mL | Tmax [2, 5]: 16 min | Cmax ± S.E.M. [2, 6]: 1854 ± 509.4 ng/mL | Cmax [2, 6]: 2060 ± 153 ng/mL | Tmax [2, 6]: 20 min | Tmax [2, 4]: 63 min | AUC increase compared to the control group ([2]; PO gaboxadol 0.5 mg/kg with 5-HTP 200 mg/kg vs without): 540% | AUC increase compared to the control group ([2]; PO gaboxadol 5.0 mg/kg with 5-HTP 200 mg/kg vs without): 330% | gaboxadol elimination rate constant when 5-HTP was present, relative to control ([2]; PO gaboxadol, 5-HTP 200 mg/kg): about 25% | AUC-dose-linearity: AUC of group J relative to group G ([2]; in vivo, 5 mg/kg): ~10 times | Ke ± S.E.M. ([2]; treatment G, PO gaboxadol 0.5 mg/kg, no 5-HTP): 0.0164 ± 0.0021 min⁻¹ | Ke ± S.E.M. ([2]; treatment H, PO gaboxadol 0.5 mg/kg, 5-HTP 200.0 mg/kg 30 min before): 0.0038 ± 0.0004 min⁻¹ | Ke ± S.E.M. ([2]; treatment I, PO gaboxadol 5.0 mg/kg, no 5-HTP): 0.0199 ± 0.0017 min⁻¹ | Ke ± S.E.M. ([2]; treatment J, PO gaboxadol 5.0 mg/kg, 5-HTP 200.0 mg/kg 30 min before): 0.0058 ± 0.0008 min⁻¹
